Source: patent publication US20110312974A1, “HETEROARYL ANTAGONISTS OF PROSTAGLANDIN D2 RECEPTORS” (AMIRA PHARMACEUTICALS, INC., priority 2008, published 2011)

Target: T1, human DP2 receptor (Homo sapiens, UniProt Q9Y5Y4)
T1 construct: expressed in transfected cells; membrane preparation
T1 sequence (Q9Y5Y4 1-395): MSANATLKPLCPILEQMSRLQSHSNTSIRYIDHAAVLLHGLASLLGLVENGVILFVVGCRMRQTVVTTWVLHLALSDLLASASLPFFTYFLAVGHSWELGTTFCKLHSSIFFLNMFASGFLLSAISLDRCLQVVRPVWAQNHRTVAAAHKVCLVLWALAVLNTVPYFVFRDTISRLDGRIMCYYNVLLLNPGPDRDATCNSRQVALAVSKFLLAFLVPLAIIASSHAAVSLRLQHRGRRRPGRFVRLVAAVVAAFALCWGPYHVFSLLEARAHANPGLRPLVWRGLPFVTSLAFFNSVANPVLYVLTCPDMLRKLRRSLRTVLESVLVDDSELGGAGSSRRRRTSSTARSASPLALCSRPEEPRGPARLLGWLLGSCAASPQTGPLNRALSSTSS
Experiment: DP2/CRTH2 radioligand binding assay using [3H]PGD2
Details: hDP2 (CRTH2) binding assay; membranes of HEK293 cells expressing recombinant human DP2, 1 nM [3H]PGD2
Procedure: The ability of a compound to bind to the human DP2 receptor is assessed via a radioligand binding assay using [^3H]PGD2. HEK293 cells stably expressing recombinant human DP2 are resuspended in 10 mM Hepes, 7.4 containing 1 mM DTT, lysed and centrifuged at 75,000×g to pellet the membranes. The membranes are resuspended in 10 mM Hepes, 7.4 containing 1 mM DTT and 10% glycerol to approximately 5 mg protein/ml. Membranes (2-10 μg protein/well) are incubated in 96-well plates with 1 nM [^3H]PGD2 and test compound in Assay Buffer (50 mM Hepes, 10 mM MnCl2, 1 mM EDTA, plus or minus 0.2% human serum albumin, pH 7.4) for 60 minutes at room temperature. The reactions are terminated by rapid filtration through Whatman GF/C glass fibre filter plates. The filter plates were pre-soaked in 0.33% polythylenimine for 30 minutes at room temperature then washed in Wash Buffer (50 mM Hepes, 0.5 M NaCl pH 7.4) prior to harvesting. After harvesting, the filter plates are washed 3 times with 1 ml cold Wash Buffer then dried. Scintillant is then added to the plates and the radioactivity retained on the filters is determined on a Packard TopCount (Perkin Elmer). Specific binding is determined as total radioactive binding minus non-specific binding in the presence of 10 μM PGD2. IC50s were determined using GraphPad prism analysis of drug titration curves.

SMILES	IC50
CCN(Cc1cc(F)ccc1-c1cncc(C(C)C(=O)O)c1)C(=O)NCc1ccccc1 (stereo not drawn) [Compound 1-12, 2-{5-[2-(3-Benzyl-1-ethyl-ureidomethyl)-4fluoro-phenyl]-pyridin-3-yl}-propionic acid]	300 to 1000 nM
C[C@H]1[C@@H](c2ccccc2)OC(=O)N1Cc1cc(C(F)(F)F)ccc1-c1cncc(CC(=O)O)c1 [Compound 2-1, {5-[2-((4S,5R)-4-Methyl-2-oxo-5-phenyl-oxazolidin-3-ylmethyl)-4-trifluoromethyl-phenyl]-pyridin-3-yl}-acetic acid]	< 300 nM
CS(=O)(=O)NCc1ccc(-c2cncc(CC(=O)O)c2)c(CN(Cc2ccccc2)C(=O)C2CC2)c1 [Compound 1-10, {5-[2-[(N-Benzyl-N-cyclopropanecarbonyl-amino)-methyl]-4-(methanesulfonylamino-methyl)-phenyl]-pyridin-3-yl}-acetic acid]	> 1000 nM
CCN(Cc1cc(C(F)(F)F)ccc1-c1cccc(CC(=O)O)n1)C(=O)NCc1ccccc1 [Compound 1-39, {6-[2-(3-Benzyl-1-ethyl-ureidomethyl)-4-trifluoromethyl-phenyl]-pyridin-2-yl}-acetic acid]	> 1000 nM
CC(=O)N(CCc1ccccc1)Cc1cc(C(F)(F)F)ccc1-c1cncc(CC(=O)O)c1 [Compound 1-27, (5-{2-[(N-Acetyl-N-phenethyl-amino)-methyl]-4-trifluoromethyl-phenyl}-pyridin-3-yl)-acetic acid]	< 300 nM
CCN(Cc1cc(C(F)(F)F)ccc1-c1cc(C(F)(F)F)cc(CC(=O)O)n1)C(=O)NCc1ccccc1 [Compound 1-42, {6-[2-(3-Benzyl-1-ethyl-ureidomethyl)-4-trifluoromethyl-phenyl]-4-trifluoromethyl-pyridin-2-yl}-acetic acid]	< 300 nM
Cc1nn(CC(=O)O)c(C)c1-c1ccc(C(F)(F)F)cc1CN(Cc1ccccc1)C(=O)C1CC1 [Compound 3-3, (4-{2-[(N-Benzyl-N-cyclopropanecarbonyl-amino)-methyl]-4-trifluoromethyl-phenyl}-3,5-dimethyl-pyrazol-1-yl)-acetic acid]	< 300 nM
CCN(Cc1cc(C(F)(F)F)ccc1-c1cc(CC(=O)O)ccn1)C(=O)NCc1ccccc1 [Compound 1-34, {2-[2-(3-Benzyl-1-ethyl-ureidomethyl)-4-trifluoromethyl-phenyl]-pyridin-4-yl}-acetic acid]	> 1000 nM
CCN(Cc1cc(C(F)(F)F)ccc1-c1cc(CC(=O)O)cnc1OCC1CC1)C(=O)C1CC1 [Compound 1-69, (5-{2-[(N-Cyclopropanecarbonyl-N-ethyl-amino)-methyl]-4-trifluoromethyl-phenyl}-6-cyclopropylmethoxy-pyridin-3-yl)-acetic acid]	< 300 nM
O=C(O)Cc1cncc(-c2ccc(C(F)(F)F)cc2CN(C(=O)C2CC2)C2Cc3ccccc3C2)c1 [Compound 1-24, (5-{2-[(N-Cyclopropanecarbonyl-N-indan-2-yl-amino)-methyl]-4-trifluoromethyl-phenyl}-pyridin-3-yl)-acetic acid]	< 300 nM
O=C(O)Cc1cncc(-c2ccc(C(F)(F)F)cc2CN(CCc2ccccn2)C(=O)C2CC2)c1 [Compound 1-64, [5-(2-{[N-Cyclopropanecarbonyl-N-(2-pyridin-2-yl-ethyl)-amino]-methyl}-4-trifluoromethyl-phenyl)-pyridin-3-yl]-acetic acid]	> 1000 nM
CCN(Cc1cc(F)ccc1-c1cncc(C(C)C(=O)O)c1)C(=O)C1CC1 (stereo not drawn) [Compound 1-13, 2-(5-[2-[(N-Cyclopropanecarbonyl-N-ethyl-amino)-methyl]-4-fluoro-phenyl]-pyridin-3-yl)-propionic acid]	> 1000 nM
CCN(Cc1cc(C(F)(F)F)ccc1-c1cccc(CC(=O)O)n1)C(=O)C1CC1 [Compound 1-40, (6-{2-[(N-Cyclopropanecarbonyl-N-ethyl-amino)-methyl]-4-trifluoromethyl-phenyl}-pyridin-2-yl)-acetic acid]	> 1000 nM
CCN(Cc1cc(C(F)(F)F)ccc1-c1cc(CC(=O)O)cnc1OCc1csc(C)n1)C(=O)C1CC1 [Compound 1-70, [5-{2-[(N-Cyclopropanecarbonyl-N-ethyl-amino)-methyl]-4-trifluoromethyl-phenyl}-6-(2-methyl-thiazol-4-ylmethoxy)-pyridin-3-yl]-acetic acid]	< 300 nM
CCN(Cc1cc(C(F)(F)F)ccc1-c1cc(CC(=O)O)ccn1)C(=O)C1CC1 [Compound 1-35, (2-{2-[(N-Cyclopropanecarbonyl-N-ethyl-amino)-methyl]-4-trifluoromethyl-phenyl}-pyridin-4-yl)-acetic acid]	> 1000 nM
